Measurements as given in US20220016115A1, “USP19 INHIBITORS FOR USE IN THERAPY” (ALMAC DISCOVERY LIMITED, priority 2018, published 2022).

Key:
[1] = test system: diet-induced obese (DIO) mouse; assay: Diet-induced obesity mouse model: body weight, DEXA and carcass composition; type: in vivo
Procedure: (§1) To assess obesity and insulin resistance, a diet-induced obesity mouse model was used.
(§2) Male C57BL6/J mice were continuously provided with high-fat diet (D12451, 45% kcal as fat; Research Diets, New Jersey, USA) and filtered tap water ad libitum for the duration of the study. From day 0, mice were administered vehicle i.p. BID, USP19 inhibitor (ADC-141) i.p. BID at 5 mg/kg or 25 mg/kg, or positive control liraglutide 0.1 mg/kg s.c. BID. Mice were allocated to treatment groups to balance the groups on the basis of body weight, food and water intake prior to the start of treatment.
(§3) Body weight was measured daily. On Day 13, body composition was assessed by DEXA. On Day 15, fasting glucose and insulin levels were measured before and during an oral glucose tolerance test (OGTT) to assess improvements in glucose control. The OGTT was performed following an overnight fast. […] An OGTT was performed the following morning (approx. 16h post fast). Mice were dosed with vehicle or test compound (starting at 08.45) to a timed schedule 30 minutes prior to the administration of the glucose challenge (2.0 g/kg po). Blood samples were taken immediately prior to dosing (B1), immediately prior to glucose administration (B2) and 15, 30, 60 and 120 minutes after glucose administration.
After OGTT, mice were humanely killed and carcass composition was assessed. The carcass was weighed and stored frozen and the chemical composition of each carcass (fat, protein, water and ash) was determined using classical techniques. Carcass water was determined by freeze-drying the carcasses to constant weight for 2 weeks. Carcass fat was determined on samples of the dry powdered carcasses using a modified Soxhlet extraction protocol (petroleum ether at 40-60° C.) with a Tecator Soxtec 2050 system (Foss UK Ltd, Wheldrake, UK) according to the manufacturer's recommended protocol. Carcass protein was determined using a micro-Kjeldahl procedure on samples of the dry powdered carcasses using a Tecator 2012 digestion block and 2200 distilling unit (Foss UK Ltd). Residual carcass ash was determined by firing samples of the dry powdered carcasses at high temperatures using a muffle ashing furnace (Carbolite OAF 11/1). Repeat determinations of the chemical analysis parameters were performed if necessary (e.g. if the duplicate samples differed by more than 1%). Data for each body composition parameter (fat, protein, water and ash) was determined as g/carcass and % total. Final carcass weights were also analysed as a direct comparison.

[2] = test system: diet-induced obese (DIO) mouse; assay: Oral glucose tolerance test (OGTT) in diet-induced obese mice; type: in vivo
Procedure: as §1, §2, §3

USP19 = target: T1, USP19 (Homo sapiens, UniProt O94966); assay: Cell target engagement, neuroblastoma cell line; type: cell-based
T1 sequence (O94966 1-1318): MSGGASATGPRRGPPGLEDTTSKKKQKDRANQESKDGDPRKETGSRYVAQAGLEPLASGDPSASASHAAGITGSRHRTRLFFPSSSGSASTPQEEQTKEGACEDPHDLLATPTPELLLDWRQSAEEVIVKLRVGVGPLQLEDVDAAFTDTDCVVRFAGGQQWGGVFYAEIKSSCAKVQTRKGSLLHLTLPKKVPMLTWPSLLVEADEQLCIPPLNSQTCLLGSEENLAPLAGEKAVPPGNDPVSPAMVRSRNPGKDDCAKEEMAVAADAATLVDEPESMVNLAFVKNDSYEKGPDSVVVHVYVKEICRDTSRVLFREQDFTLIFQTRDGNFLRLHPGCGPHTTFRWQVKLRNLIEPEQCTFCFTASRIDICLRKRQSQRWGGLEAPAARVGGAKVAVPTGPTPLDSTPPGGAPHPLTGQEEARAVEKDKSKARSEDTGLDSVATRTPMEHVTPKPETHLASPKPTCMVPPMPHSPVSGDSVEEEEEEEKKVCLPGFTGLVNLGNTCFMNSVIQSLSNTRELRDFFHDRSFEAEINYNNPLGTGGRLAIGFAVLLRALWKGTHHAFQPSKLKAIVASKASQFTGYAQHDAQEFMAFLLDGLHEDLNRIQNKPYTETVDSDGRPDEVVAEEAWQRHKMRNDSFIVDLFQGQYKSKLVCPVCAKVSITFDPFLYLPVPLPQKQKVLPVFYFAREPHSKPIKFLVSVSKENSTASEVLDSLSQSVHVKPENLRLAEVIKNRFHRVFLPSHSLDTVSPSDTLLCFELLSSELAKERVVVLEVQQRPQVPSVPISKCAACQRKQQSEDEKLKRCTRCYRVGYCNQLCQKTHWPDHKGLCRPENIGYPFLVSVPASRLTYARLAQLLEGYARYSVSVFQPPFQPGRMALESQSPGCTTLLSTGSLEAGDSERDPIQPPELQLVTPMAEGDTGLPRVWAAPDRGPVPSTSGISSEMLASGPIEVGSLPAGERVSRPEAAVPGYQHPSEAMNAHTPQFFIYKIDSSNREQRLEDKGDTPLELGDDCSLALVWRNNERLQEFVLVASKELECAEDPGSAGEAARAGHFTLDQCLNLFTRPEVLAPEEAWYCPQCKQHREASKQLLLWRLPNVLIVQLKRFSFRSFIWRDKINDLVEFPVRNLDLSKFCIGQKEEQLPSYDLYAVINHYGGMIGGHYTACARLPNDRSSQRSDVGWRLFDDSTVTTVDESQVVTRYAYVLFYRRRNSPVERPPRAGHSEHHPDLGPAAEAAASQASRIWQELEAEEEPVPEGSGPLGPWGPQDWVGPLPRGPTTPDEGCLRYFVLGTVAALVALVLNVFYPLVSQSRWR
Procedure: Cells from a breast cancer cell line, a neuroblastoma cell line and a mouse skeletal muscle cell line were treated with a USP19 inhibitor compound (ADC-141, corresponding to Example 212 provided herein) for 2 hrs, lysed (lysis buffer: 50 mM Tris pH 7.4; 150 mM NaCl; 5 mM MgCl2; 0.5 mM EDTA; 0.5% NP40; 10% Glycerol; 2 mM DTT) and Ubiquitin-propargylamine (Ub-PA; UbiQ) or Ubiquitin-vinyl methyl ester (Ub-VME; Almac Sciences Scotland Limited) was then added. Samples were analysed by western blotting probing for USP19 (EC50 determined by densitometry).

[3] = ADC-141 25 mg/kg ip bid, liraglutide 0.1 mg/kg sc bid
[4] = ADC-141 25 mg/kg ip bid, liraglutide 0.1 mg/kg sc bid, vs vehicle
[5] = DEXA, ADC-141 25 mg/kg ip bid, liraglutide 0.1 mg/kg sc bid

## C[C@H](CC1CCCCC1)C(=O)N1CC[C@@](O)(Cn2cc(C(=O)N3CCNCC3)c(-c3ccccc3)cc2=O)C2(CCCC2)C1 [ADC-141, 1-(((S)-7-((R)-3-Cyclohexyl-2-methylpropanoyl)-10-hydroxy-7-azaspiro[4.5]decan-10-yl)methyl)-4-phenyl-5-(piperazine-1-carbonyl)pyridin-2(1H)-one]
[1]; ADC-141 5 mg/kg ip bid
  relative water content of the carcass (percentage of total carcass mass): no effect
[1]; ADC-141 5 mg/kg ip bid, vs vehicle
  carcass water content (g): no significant effect
[1]; ADC-141 5 mg/kg ip bid, vs vehicle-treated animals
  carcass protein: no significant changes
[1]; ADC-141 25 mg/kg ip bid
  carcass percentage fat: −14.6%
[1]; [3]
  differences in body weights on the final day of the study: ~13%
  loss of fat as share of the total weight lost: 79%
  percent protein (percentage of total carcass mass), increase: 6.0%
  reduction in carcass fat (g) from controls: 24.9%
  relative water content of the carcass (percentage of total carcass mass): +11.4%
[1]; [4]
  carcass ash content (g): −9.6%
  carcass protein content (g): −7.2%
  carcass water content (g): no significant effect
[1]; DEXA Day 13, liraglutide 0.1 mg/kg sc bid, dose of USP19 inhibitor not printed at place
  reduction in fat mass compared to vehicle treated controls: 24%
[1]; DEXA Day 13, vs vehicle, not significant (p>0.05)
  lean body mass change: −3%
[1]; DEXA analysis
  total tissue mass: significant reduction
[1]; [5]
  fat mass % (percentage of total tissue mass): significantly decreased
  lean mass % (percentage of total tissue mass): increased
[1]; compared to vehicle control mice (p<0.001)
  cumulative and average food intake: reduction
[1]; two weeks, ADC-141 25 mg/kg ip bid, liraglutide 0.1 mg/kg sc bid
  carcass weight compared to vehicle-treated controls: ~−12%
[1]; week 1, ADC-141 25 mg/kg ip bid, liraglutide 0.1 mg/kg sc bid, vs vehicle
  average weekly body weight gain: significantly decreased
[1]; week 2, ADC-141 25 mg/kg ip bid, liraglutide 0.1 mg/kg sc bid, vs vehicle
  average weekly body weight gain: significantly decreased
[2]; 0-60 and 0-120 minutes, 25 mg/kg ip bid
  insulin AUC: reduced
[2]; 0-120 minutes only, 25 mg/kg ip bid, vs vehicle
  glucose AUCB2: significantly reduced
[2]; 25 mg/kg ip bid, vs vehicle
  glucose AUC: significantly reduced
[2]; 30, 60 and 120 minutes post-glucose, 25 mg/kg ip bid
  plasma insulin: reduced
[2]; all time points pre- and post-glucose, 25 mg/kg ip bid, vs vehicle
  plasma glucose: significantly reduced
[2]; following 2 weeks of treatment
  fasting plasma glucose: effective at decreasing
USP19
  cell permeability: good cell permeability
USP19; 2 hrs treatment, Ub-PA or Ub-VME probe, western blot
  EC50 (USP19 target engagement, densitometry): low nanomolar
